Broadly, the IC50 is the concentration needed to halve the response being measured. A higher IC50 goes with weaker potency. The term EC50 denotes the concentration at which the effect is half-maximal. Lower therefore signals greater potency.

Some results are limits rather than exact numbers.

Data on 34 compounds can be found in ChEMBL document CHEMBL1147791, “Polyamines and the NMDA receptor: modifying intrinsic activities with aromatic substituents” (Bioorg Med Chem Lett, 2006).

Type in all cases: protein-complex assay
The target in assay [1] is T1, Glutamate NMDA receptor (Rattus norvegicus) (UniProt P35439+Q00959+Q00960+Q00961+Q62645+Q8VHN2+Q9R1M7). As to the kind of experiment: Attenuation at rat NMDA receptor assessed as ratio of inhibition of [3H]MK-801 binding to NMDA receptor in presence to absence of spermine.
Assay [2] deals with Glutamate NMDA receptor. The assay can be described thus: Inhibition of [3H]MK-801 binding to rat NMDA receptor.
The target in assay [3] is Glutamate NMDA receptor. The assay can be described thus: (§1) Stimulation of [3H]MK-801 binding to rat NMDA receptor.
Assay [4] has as its target T1, Glutamate NMDA receptor (Rattus norvegicus). The assay is described as §1.

On to `NCCCCN(CCCN)C(=O)OCc1ccccc1`, for which, in assay [1], the Ratio IC50 was determined as 67. The IC50 on Glutamate NMDA receptor [2] is 17.6 µM. In the case of `CC(C)(C)OC(=O)N(CCCN)CCCCN(CCCN)C(=O)OC(C)(C)C`, the Ratio IC50 in assay [1] was 5.3. The IC50 on Glutamate NMDA receptor [2] was found to be 6680 µM. Consider `O=C(NCCCCNCCCNC(=O)c1ccccc1)c1ccccc1`, for which, at Glutamate NMDA receptor [2], the IC50 was more than 300 µM.

On to `CC(C)NCCCN(CCCCN(CCCN)Cc1ccc2ccccc2c1)Cc1ccc2ccccc2c1`, for which the Ratio IC50 in assay [1] was 1.96. The compound also returned an IC50 at Glutamate NMDA receptor [2] of 14 µM. The like results for `NCCCNCCCCNCCCNCCCc1ccccc1` were, in that order, 1.43 and 25.6 µM. `CC(C)NCCCN(CCCCN(CCCNC(C)C)Cc1ccc2ccccc2c1)Cc1ccc2ccccc2c1`: in assay [1], the Ratio IC50 came to 0.48. Besides, the IC50 on Glutamate NMDA receptor [2] was determined as 44.6 µM.

On to `c1ccc2c(CNCCCCNCCCNCc3cccc4ccccc34)cccc2c1`, for which the Ratio IC50 in assay [1] is 2.2. This compound also registered an IC50 at Glutamate NMDA receptor [2] of 4.37 µM. In the case of `NCCCCN(CCCN)Cc1ccc2ccccc2c1`, the Ratio IC50 in assay [1] was 13.1. This compound showed an IC50 at Glutamate NMDA receptor [2] of 9.8 µM. The like results for `NCCCN(CCCCN(CCCN)CCCc1ccccc1)CCCc1ccccc1` were, in that order, 2.6 and 26.7 µM. The like results for `NCCCN(CCCCN(CCCNCCCc1ccccc1)CCCc1ccccc1)CCCc1ccccc1` were, in that order, 1.44 and 13.1 µM. The compound `NCCCCN(CCCN)CCCc1ccccc1` gave an IC50 on Glutamate NMDA receptor [2] of more than 300 µM. Consider `c1ccc(CCCN(CCCNCCCCNCCCN(CCCc2ccccc2)CCCc2ccccc2)CCCc2ccccc2)cc1`, for which, in assay [1], the Ratio IC50 stood at 1.58. The compound also showed an IC50 at Glutamate NMDA receptor [2] of 3.9 µM.

The compound `NCCCNCCCCN(CCCN)Cc1ccccc1` showed an EC50 at Glutamate NMDA receptor [3] of 2.7 µM. In addition, the Activity in assay [4] was determined as 28%. The compound also gave an IC50 at Glutamate NMDA receptor [2] of more than 300 µM. `O=C(Cc1ccccc1)NCCCNCCCCNCCCNC(=O)Cc1ccccc1`: the Ratio IC50 in assay [1] is more than 10. Further, the IC50 at Glutamate NMDA receptor [2] was determined as 103 µM. The like results for `N=C(N)NCCCN(CCCCN(CCCN)CCCc1ccccc1)CCCc1ccccc1` were, in that order, 1.5 and 13 µM. The like results for `c1ccc(CCCNCCCN(CCCCN(CCCNCCCc2ccccc2)CCCc2ccccc2)CCCc2ccccc2)cc1` were, in that order, 1.49 and 8.4 µM. As for `NCCCN(CCCCN(CCCN)C(=O)OCc1ccccc1)C(=O)OCc1ccccc1`, the Ratio IC50 in assay [1] stood at 4.7. Moreover, the IC50 at Glutamate NMDA receptor [2] came out at 17.2 µM.

As for `NCCCNCCCCN(CCCN)Cc1ccc2ccccc2c1`, the Ratio IC50 in assay [1] came out at 1.45. For the same compound, the IC50 on Glutamate NMDA receptor [2] turned out to be 58 µM. Consider `NCCCNCCCCN(CCCN)CCCc1ccccc1`, for which the Ratio IC50 in assay [1] came out at 0.93. Moreover, on Glutamate NMDA receptor [3], it took 1.8 µM to reach a half-maximal effect (EC50). In assay [4], this compound returned an Activity of 26%. On Glutamate NMDA receptor [2], this compound yielded an IC50 of 182 µM. In the case of `c1ccc2cc(CN(CCCCNCCCN(Cc3ccc4ccccc4c3)Cc3cccc4ccccc34)Cc3cccc4ccccc34)ccc2c1`, in assay [1], the Ratio IC50 was determined as 1.66. The IC50 at Glutamate NMDA receptor [2] was 14.3 µM. The like results for `NCCCCN(CCCN)C(=O)c1ccccc1` were, in that order, more than 10 and 82 µM. The matching figures for `c1ccc2cc(CNCCCNCCCCNCCCNCc3ccc4ccccc4c3)ccc2c1`: 2.84 and 4.7 µM. The like results for `NCCCN(CCCCN(CCCN)Cc1ccccc1)Cc1ccccc1` were, in that order, 4.3 and 38 µM. For the compound `c1ccc(CCCNCCCNCCCCNCCCNCCCc2ccccc2)cc1`, the Ratio IC50 in assay [1] amounted to 0.92. This compound also registered a half-inhibitory concentration (IC50) at Glutamate NMDA receptor [2] of 7.4 µM.

In the case of `O=C(NCCCCNCCCNC(=O)OCc1ccccc1)OCc1ccccc1`, in assay [1], the Ratio IC50 is more than 10. The same compound yielded a half-inhibitory concentration (IC50) at Glutamate NMDA receptor [2] of 56 µM. Consider `NCCCCN(CCCN)Cc1ccccc1`, for which the IC50 on Glutamate NMDA receptor [2] is more than 300 µM. As for `c1ccc(CNCCCCNCCCNCc2ccccc2)cc1`, the Ratio IC50 in assay [1] stood at 5.9. The compound also gave an IC50 at Glutamate NMDA receptor [2] of 6.2 µM. For the compound `NCCCN(CCCCN(CCCN)Cc1ccc2ccccc2c1)Cc1ccc2ccccc2c1`, the Ratio IC50 in assay [1] was 2.2. The same compound registered an IC50 on Glutamate NMDA receptor [2] of 9.1 µM. Take `NCCCCN(CCCN)C1c2ccccc2CCc2ccccc21`: in assay [1], the Ratio IC50 worked out at 5.1. Besides, the IC50 at Glutamate NMDA receptor [2] turned out to be 14.2 µM. As for `N=C(N)NCCCN(CCCCN(CCCNC(=N)N)CCCc1ccccc1)CCCc1ccccc1`, the Ratio IC50 in assay [1] came out at 0.63. The IC50 at Glutamate NMDA receptor [2] was determined as 11.2 µM. Regarding `c1ccc(CNCCCNCCCCNCCCNCc2ccccc2)cc1`, the Ratio IC50 in assay [1] amounted to 2.27. On Glutamate NMDA receptor [2], this compound registered an IC50 of 6.12 µM. The like results for `c1ccc(CCCNCCCCN(CCCNCCCc2ccccc2)CCCc2ccccc2)cc1` were, in that order, 2.03 and 9.5 µM. In the case of `CC(C)(C)OC(=O)N(CCCN)CCCCN`, the half-maximal inhibitory concentration (IC50) on Glutamate NMDA receptor [2] is more than 300 µM. On to `c1ccc2cc(CN(CCCNCCCCNCCCN(Cc3ccc4ccccc4c3)Cc3ccc4ccccc4c3)Cc3ccc4ccccc4c3)ccc2c1`, for which the Ratio IC50 in assay [1] was 1.32. On Glutamate NMDA receptor [2], this compound returned an IC50 of 8.7 µM.
